For data set [1], the target named is T1, butyrylcholinesterase (BChE) (Equus caballus, UniProt P81908).
T1 construct: horse serum butyrylcholinesterase (BChE, EC3.1.1.8); purchased Sigma-Aldrich Co. (St. Louis, MO, USA); host or cells: horse serum
The experiment in a line: In vitro cholinesterase activity assay (Ellman), BChE. The settings on record: concentrations up to 125 μM; Mean ± SEM; read-out: IC50 Butyrylcholine esterase Mean ± SEM. The data set is classed as biochemical. The method, then:
(§1) The reaction started with the addition of 10 μL of DTNB and 10 μL of Ach or Bch.
(§2) Briefly, the basis for this assay is the hydrolysis of acetylthiocholine by acetylcholinesterase, producing thiocholine that reacts with DTNB. […] Degrees of inhibition were calculated according to […] wherein E and S represent enzyme activities in the presence and absence of a test sample, respectively.
(§3) The compounds of Table 1 were evaluated for anti-Alzheimer activity. In this regard, inhibitory activity against AChE (acetylcholinesterase) and BChE (butyrylcholinesterase), which lyse acetylcholine in the central nervous system, was measured according to the Experimental Method to calculate IC(inhibition concentrations)50 values.
For orientation: In Ellman's method for cholinesterases, released thiocholine reacts with DTNB.

In data set [2] the target is T2, BACE1 (β-secretase, recombinant human enzyme) (Homo sapiens, UniProt P56817).
T2 construct: purchased Pan Vera Co. (Madison, WI, USA)
T2 sequence (P56817 46-501): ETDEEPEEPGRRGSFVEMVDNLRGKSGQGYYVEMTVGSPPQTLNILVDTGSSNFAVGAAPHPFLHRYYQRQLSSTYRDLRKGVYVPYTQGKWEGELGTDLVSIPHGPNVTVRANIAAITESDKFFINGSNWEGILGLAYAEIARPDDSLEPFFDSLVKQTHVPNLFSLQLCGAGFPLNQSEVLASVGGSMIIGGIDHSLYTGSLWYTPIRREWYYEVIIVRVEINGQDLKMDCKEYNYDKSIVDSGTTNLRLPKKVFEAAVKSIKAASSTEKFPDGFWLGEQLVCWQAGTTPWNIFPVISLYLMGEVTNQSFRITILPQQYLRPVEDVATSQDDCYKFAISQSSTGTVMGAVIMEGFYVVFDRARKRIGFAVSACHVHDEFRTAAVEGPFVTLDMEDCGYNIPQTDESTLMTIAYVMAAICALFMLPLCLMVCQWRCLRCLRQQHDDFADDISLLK
The experiment in a line: In vitro BACE1 activity assay (FRET kit). The data set is classed as biochemical. Particulars: compounds in 10% DMSO, concentrations up to 125 μM. An excerpt:
BACE1 (beta-secretase) FRET assay kit was purchased from Pan Vera Co. (Madison, WI, USA). All the chemicals and solvents used in column chromatography were of reagent grade and were used as received without further purification.
A BACE1 fluorescence resonance energy transfer (FRET) assay kit (β-secretase, recombinant human enzyme) was purchased from Pan Vera Co. (Madison, WI, USA).
BACE1 is an enzyme promotive of the production of β-amyloid, which destroys neurons. In order to examine the effects on the compounds of Table 1 on the activity of BACE1, IC(inhibition concentrations)50 values were determined by measuring BACE1 activity in vitro according to Experimental Methods.

The test system of the next data set is NIH3T3 cells. Description: MTT cytotoxicity assay, normal cell line NIH3T3. Format: cell-based. Particulars: NIH3T3 mouse embryo fibroblast, 48 hours incubation. On the procedure: (§4) The normal cell line NIH3T3 (mouse embryo fibroblast cell-line) and the cancerous cell line B16F10 (mouse melanoma cell-line) were separately grown in 96-well plates and incubated for 48 hours with predetermined concentrations of each of the compounds. After additional incubation with MTT, absorbance at 550 nm was read using a microplate reader. Absorbance is an index accounting for a number of viable cells and was used to calculate cell proliferation rates according to the following formula. All experiments were conducted three times for reproducibility. Cell proliferation rate (%)=OD550(sample)/OD550(control)
(§5) Then, LD50 (Lethal Dose 50) values were calculated on the basis of changes in the cell proliferation rate.

Data set [3] has as its target T3, acetylcholinesterase (AChE) (Electrophorus electricus, UniProt O42275).
T3 construct: purchased Sigma-Aldrich Co. (St. Louis, MO, USA)
The experiment in a line: In vitro cholinesterase activity assay (Ellman), AChE. The data set is classed as biochemical. The settings on record: for IC50: concentrations up to 125 μM, Mean ± SEM, read-out: IC50 Acetylcholine Esterase Mean ± SEM; for SI: selectivity index (BChE/AChE): ratio of IC50 BChE/AChE. The method, then:
as §1, §2, §3

The test system of another data set is B16F10 cells. Description: MTT cytotoxicity assay, cancerous cell line B16F10. The data set is classed as cell-based. Particulars: B16F10 mouse melanoma, 48 hours incubation. The method, then:
as §4, §5
For orientation: Tetrazolium assays rely on reduction of a dye to a coloured formazan, in cell work by metabolically active cells.

A further data set addresses T4, BACE1 (Homo sapiens, UniProt P56817).
T4 construct: purchased Pan Vera Co. (Madison, WI, USA)
The experiment in a line: BACE1 enzyme kinetics (Dixon plot and Lineweaver plot). The data set is classed as biochemical. The method, then: A BACE1 fluorescence resonance energy transfer (FRET) assay kit (β-secretase, recombinant human enzyme) was purchased from Pan Vera Co. (Madison, WI, USA). The assay was carried out according to the manual provided, with a modification made thereto as described by Jung et al. (Jung et al., Biol Pharm Bull, 2010, 33:267-272). Quercetin was used as a positive control.
In addition, an enzyme kinetics experiment was conducted using the Lineweaver plot and Dixon plot (see FIG. 7) in order to examine the BACE1 inhibition mechanism of the novel compound (Compound 2). […] The results of the experiment indicate that the novel compound of the present disclosure is a very potent inhibitor against BACE1.

Data set [4] has as its target T3, acetylcholinesterase (AChE). The experiment in a line: AChE enzyme kinetics (Dixon plot and Lineweaver plot). The data set is classed as biochemical. The method, then:
as §1, §2

Data set [5] concerns the target T1, butyrylcholinesterase (BChE). The experiment in a line: BChE enzyme kinetics (Dixon plot and Lineweaver plot). The data set is classed as biochemical. On the procedure: as §1, §2

Read-outs that look alike come from different tables or passages of the source.

T3 sequence (O42275 24-633): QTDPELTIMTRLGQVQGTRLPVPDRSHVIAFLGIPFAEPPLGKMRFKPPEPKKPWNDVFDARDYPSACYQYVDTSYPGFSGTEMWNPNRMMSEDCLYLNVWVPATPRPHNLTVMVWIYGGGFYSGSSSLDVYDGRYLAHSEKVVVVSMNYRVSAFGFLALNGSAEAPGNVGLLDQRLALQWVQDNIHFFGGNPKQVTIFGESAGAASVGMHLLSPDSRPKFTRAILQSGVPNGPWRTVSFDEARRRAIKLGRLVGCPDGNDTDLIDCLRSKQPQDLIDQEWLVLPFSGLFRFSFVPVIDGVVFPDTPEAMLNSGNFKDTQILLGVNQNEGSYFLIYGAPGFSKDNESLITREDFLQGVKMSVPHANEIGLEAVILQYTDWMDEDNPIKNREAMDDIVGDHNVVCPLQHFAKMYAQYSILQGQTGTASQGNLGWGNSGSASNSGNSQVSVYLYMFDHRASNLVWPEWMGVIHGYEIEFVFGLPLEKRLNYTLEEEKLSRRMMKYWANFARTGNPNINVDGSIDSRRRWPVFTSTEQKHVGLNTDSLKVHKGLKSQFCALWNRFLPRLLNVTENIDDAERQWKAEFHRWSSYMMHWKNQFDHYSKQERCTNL
T4 sequence (P56817 46-501): as the sequence (P56817 46-501) above
T1 sequence (P81908 whole entry): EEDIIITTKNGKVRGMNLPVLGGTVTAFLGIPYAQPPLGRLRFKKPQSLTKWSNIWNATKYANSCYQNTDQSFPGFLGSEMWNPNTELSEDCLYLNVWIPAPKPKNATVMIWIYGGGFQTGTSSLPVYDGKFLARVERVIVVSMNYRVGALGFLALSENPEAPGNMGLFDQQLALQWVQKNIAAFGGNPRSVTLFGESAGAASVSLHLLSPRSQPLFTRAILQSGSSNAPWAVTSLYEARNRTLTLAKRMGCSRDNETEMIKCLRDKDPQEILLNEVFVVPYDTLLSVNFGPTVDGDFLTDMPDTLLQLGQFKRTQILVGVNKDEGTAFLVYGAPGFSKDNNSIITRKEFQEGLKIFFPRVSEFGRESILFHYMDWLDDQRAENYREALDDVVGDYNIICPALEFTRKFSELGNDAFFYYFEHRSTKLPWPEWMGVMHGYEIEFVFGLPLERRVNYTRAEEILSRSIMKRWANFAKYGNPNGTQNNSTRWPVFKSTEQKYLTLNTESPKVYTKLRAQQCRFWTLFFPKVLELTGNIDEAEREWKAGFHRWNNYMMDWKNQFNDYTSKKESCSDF

For the molecule `Cc1cc2c(c(C)c1CCO[C@@H]1OC(CO)[C@@H](O)C(O)C1O)C(=O)[C@](C)(O)C2` (single isomer, unassigned; (-)) [Compound 18, (−)-pteroside N], the IC50 in data set [1] was 7.39 ± 0.99 µM; in data set [2], 30.6 ± 1.8 µM; in data set [3] it was 4.47 ± 0.29 µM. Also, the “LD50 Normal cell NIH3T3” value in the data set on NIH3T3 cells was >5,000 μM. Further, the “SI: selectivity index (BChE/AChE)” value in data set [3] amounted to 1.7. Further, the “LD50 Cancer cell B16F10” value in the data set with B16F10 cells was >5,000 μM.

As to `Cc1cc2c(c(C)c1CCO[C@@H]1OC(CO)[C@@H](O)[C@H](O)C1O)C(=O)[C@](C)(CO)C2` (stereo partly drawn) [Compound 12, (2S)-pteroside A], the figures for the IC50 in data set [1], in data set [2] and in data set [3] were 19.4 ± 0.22 µM, 84.6 ± 6 µM and 110 ± 3 µM, respectively. For the same molecule, the “LD50 Normal cell NIH3T3” value in the data set with NIH3T3 cells is given as >5,000 μM. The “SI: selectivity index (BChE/AChE)” value in data set [3] turned out to be 0.17. Moreover, in the data set with B16F10 cells, the “LD50 Cancer cell B16F10” value was >5,000 μM.

Consider `Cc1cc2c(c(C)c1CCO[C@@H]1OC(CO)[C@@H](O)[C@H](O)C1O)C(=O)[C@H](C)C2` (stereo partly drawn) [Compound 14, (2R)-pteroside B], for which the results for the IC50 in data set [1] and in data set [2] were 17.6 ± 3.1 µM and 43.4 ± 3 µM, respectively. Also, the results for the “Inhibition type BACE1” value on BACE1 and on BACE1 (listed as (2R)-Pteroside B) were “noncompetitive type” and “Noncompetitive”, respectively. Also, on BACE1, the Ki was determined as 72.5 µM. Moreover, in the data set with NIH3T3 cells, the “LD50 Normal cell NIH3T3” value is >5,000 μM. Moreover, the “SI: selectivity index (BChE/AChE)” value in data set [3] turned out to be 6.9. Further, the “Inhibition type Acetylcholinesterase” value is recorded as “mixed type” in data set [4] and “Mixed-type” in data set [4] (listed as (2R)-Pteroside B). In the data set with B16F10 cells, the “LD50 Cancer cell B16F10” value is given as >5,000 μM. For the same molecule, the “Inhibition type Butyrylcholinesterase” value in data set [5] is listed as “mixed type”; in data set [5] (listed as (2R)-Pteroside B) it was “Mixed-type”.

Regarding `Cc1cc2c(c(C)c1CCO[C@@H]1OC(CO)[C@@H](O)[C@H](O)C1O)C(=O)C(C)(C)[C@H]2O` (stereo partly drawn) [Compound 17, (3S)-pteroside D], the IC50 in data set [2] was 10.7 ± 1.5 µM. On BACE1, the “Inhibition type BACE1” value was “mixed type” and the affinity corresponds to a Ki of 16.5 µM. At BACE1 (listed as (3S)-Pteroside D), the “Inhibition type BACE1” value was “Mixed-type”. In addition, in the data set on NIH3T3 cells, the “LD50 Normal cell NIH3T3” value is >5,000 μM. Further, the “SI: selectivity index (BChE/AChE)” value in data set [3] is given as 0.70. Also, the “LD50 Cancer cell B16F10” value in the data set on B16F10 cells is on record as >5,000 μM.

In the case of `Cc1c(CCO[C@@H]2OC(CO)[C@@H](O)[C@H](O)C2O)c(CO)cc2c1C(=O)[C@@H](C)C2` (stereo partly drawn) [Compound 19, (2S)-pteroside P], the IC50 is 33.2 ± 3 µM in data set [1], 81.3 ± 3.9 µM in data set [2] and 57.5 ± 3.2 µM in data set [3]. For the same molecule, the “LD50 Normal cell NIH3T3” value with NIH3T3 cells is recorded as >5,000 μM. Also, in data set [3], the “SI: selectivity index (BChE/AChE)” value stood at 0.57. Further, the “LD50 Cancer cell B16F10” value with B16F10 cells is recorded as >5,000 μM.

What is called IC50 is the concentration at which inhibition is half-maximal. Broadly, the Ki is a measure of affinity in units of concentration, obtained from inhibition or displacement.

(Values after patent US12678413B2, “Compositions containing pterosin compound and derivatives thereof active ingredients for prevention or treatment of degenerative brain diseases” (priority 2017, dated 2026).)
